Patent publication US20090036448A1, “PYRIMIDINE DERIVATIVES AND METHODS OF TREATMENT RELATED TO THE USE THEREOF” (TAISHO PHARMECUTICAL CO., LTD., priority 2004, published 2009)

Biological target: MCH receptor (Homo sapiens, UniProt Q99705)
Experiment: Receptor binding assay with Radiolabelled MCH Ligand
Parameters: expressed in transfected cells; host or cells: 293 cells (human kidney, ATCC), transient transfection; crude membranes
Conditions: class by percent of control at 10^-7 M or IC50
Text: In addition to the methods described herein, another means for evaluating a test compound is by determining binding affinities to the MCH receptor. This type of assay generally requires a radiolabelled ligand to the MCH receptor. Absent the use of known ligands for the MCH receptor and radiolabels thereof, compounds of Formula (I) can be labelled with a radioisotope and used in an assay for evaluating the affinity of a test compound to the MCH receptor.
A radiolabelled MCH compound of Formula (I) can be used in a screening assay to identify/evaluate compounds. In general terms, a newly synthesized or identified compound (i.e., test compound) can be evaluated for its ability to reduce binding of the “radiolabelled compound of Formula (I)” to the MCH receptor. Accordingly, the ability to compete with the “radio-labelled compound of Formula (I)” or Radiolabelled MCH Ligand for the binding to the MCH receptor directly correlates to its binding affinity of the test compound to the MCH receptor.
293 cells (human kidney, ATCC), transiently transfected with 10 μg human MCH receptor and 60 μl Lipofectamine (per 15-cm dish), are grown in the dish for 24 hours (75% confluency) with a media change and removed with 10 mL/dish of Hepes-EDTA buffer (20 mM Hepes+10 mM EDTA, pH 7.4). The cells are then centrifuged in a Beckman Coulter centrifuge for 20 minutes, 17,000 rpm (JA-25.50 rotor). Subsequently, the pellet is resuspended in 20 mM Hepes+1 mM EDTA, pH 7.4 and homogenized with a 50-mL Dounce homogenizer and again centrifuged. After removing the supernatant, the pellets can be stored at −80° C., until used in binding assay. When used in the assay, membranes are thawed on ice for 20 minutes and then 10 mL of incubation buffer (20 mM Hepes, 1 mM MgCl2, 100 mM NaCl, pH 7.4) added. The membranes are then vortexed to resuspend the crude membrane pellet and homogenized with a Brinkmann PT-3100 Polytron homogenizer for 15 seconds at setting 6. The concentration of membrane protein is determined using the BRL Bradford protein assay.
For total binding, a total volume of 50 ul of appropriately diluted membranes (diluted in assay buffer containing 50 mM Tris HCl (pH 7.4), 1 mM MgCl2, and 1 mM EDTA; 5-50 ug protein) is added to 96-well polyproylene microtiter plates followed by addition of 100 μl of assay buffer and 50 μl of Radiolabelled MCH Ligand. For nonspecific binding, 50 μl of assay buffer is added instead of 100 μl and an additional 50 μl of 10 uM cold MCH is added before 50 μl of Radiolabelled MCH Ligand is added. Plates are then incubated at room temperature for 60-120 minutes. The binding reaction is terminated by filtering assay plates through a Microplate Devices GF/C Unifilter filtration plate with a Brandell 96-well plate harvester followed by washing with cold 50 mM Tris HCl, pH 7.4 containing 0.9% NaCl. Then, the bottom of the filtration plate are sealed, 50 ul of Optiphase Supermix is added to each well, the top of the plates are sealed, and plates are counted in a Trilux MicroBeta scintillation counter. For compound competition studies, instead of adding 100 μl of assay buffer, 100 μl of appropriately diluted test compound is added to appropriate wells followed by addition of 50 μl of Radiolabelled MCH Ligand.
The test compounds are initially assayed at 1 and 0.1 μM and then at a range of concentrations chosen such that the middle dose would cause about 50% inhibition of a Radiolabelled MCH Ligand binding (i.e., IC50). Specific binding in the absence of test compound (BO) is the difference of total binding (BT) minus non-specific binding (NSB) and similarly specific binding (in the presence of test compound) (B) is the difference of displacement binding (BD) minus non-specific binding (NSB). IC50 is determined from an inhibition response curve, logit-log plot of % B/BO vs. concentration of test compound.
Ki is calculated by the Cheng and Prustoff transformation: […]

Chain of MCH receptor (Q99705 whole entry): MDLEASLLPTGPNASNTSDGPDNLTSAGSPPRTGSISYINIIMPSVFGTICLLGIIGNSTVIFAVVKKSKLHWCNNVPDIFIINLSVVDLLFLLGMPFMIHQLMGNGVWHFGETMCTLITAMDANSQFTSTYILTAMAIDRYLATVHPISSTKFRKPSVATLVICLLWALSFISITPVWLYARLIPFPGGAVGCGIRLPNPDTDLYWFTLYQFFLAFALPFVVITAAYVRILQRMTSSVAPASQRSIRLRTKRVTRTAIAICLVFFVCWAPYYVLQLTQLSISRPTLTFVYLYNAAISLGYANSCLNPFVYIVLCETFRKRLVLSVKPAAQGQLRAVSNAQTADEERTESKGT

Compound | class
CC(=O)OC(C(=O)N[C@H]1CC[C@@H](Nc2cc(N(C)C)nc(C)n2)CC1)c1ccccc1 (relative stereo) [compound 197] | 3 (Class 3: The value of percent of control at 10^−7 M was more than 60% or the value of IC50 was more than 200 nM.)
Cc1nc(N[C@H]2CC[C@@H](NC(=O)[C@@H]3CCCN3S(=O)(=O)c3ccc(C(C)(C)C)cc3)CC2)cc(N(C)C)n1 (relative stereo) [compound 277] | 3 (Class 3: The value of percent of control at 10^−7 M was more than 60% or the value of IC50 was more than 200 nM.)
Cc1nc(N[C@H]2CC[C@@H](NC(=O)CC(C)S(=O)(=O)c3ccc(Cl)cc3)CC2)cc(N(C)C)n1 (relative stereo) [compound 281] | 3 (Class 3: The value of percent of control at 10^−7 M was more than 60% or the value of IC50 was more than 200 nM.)
Cc1nc(N[C@H]2CC[C@@H](NC(=O)C3CC(=O)N(Cc4cccs4)C3)CC2)cc(N(C)C)n1 (relative stereo) [compound 282] | 3 (Class 3: The value of percent of control at 10^−7 M was more than 60% or the value of IC50 was more than 200 nM.)
Cc1nc(N[C@H]2CC[C@@H](NC(=O)C(C)c3ccc(-c4ccccc4)c(F)c3)CC2)cc(N(C)C)n1 (relative stereo) [compound 284] | 3 (Class 3: The value of percent of control at 10^−7 M was more than 60% or the value of IC50 was more than 200 nM.)
Cc1nc(N[C@H]2CC[C@@H](NC(=O)C(C)c3ccc(N4Cc5ccccc5C4=O)cc3)CC2)cc(N(C)C)n1 (relative stereo) [compound 286] | 3 (Class 3: The value of percent of control at 10^−7 M was more than 60% or the value of IC50 was more than 200 nM.)
COc1ccc2c(c1)C(CC(=O)N[C@H]1CC[C@@H](Nc3cc(N(C)C)nc(C)n3)CC1)CC2=O (relative stereo) [compound 290] | 3 (Class 3: The value of percent of control at 10^−7 M was more than 60% or the value of IC50 was more than 200 nM.)
Cc1nc(N[C@H]2CC[C@@H](NC(=O)C3CC(=O)c4ccccc43)CC2)cc(N(C)C)n1 (relative stereo) [compound 299] | 3 (Class 3: The value of percent of control at 10^−7 M was more than 60% or the value of IC50 was more than 200 nM.)
Cc1ccc(C(=O)CC(Sc2ccc(Cl)cc2)C(=O)N[C@H]2CC[C@@H](Nc3cc(N(C)C)nc(C)n3)CC2)cc1 (relative stereo) [compound 310] | 3 (Class 3: The value of percent of control at 10^−7 M was more than 60% or the value of IC50 was more than 200 nM.)
Cc1ccc(SC(CC(=O)c2ccc(F)cc2)C(=O)N[C@H]2CC[C@@H](Nc3cc(N(C)C)nc(C)n3)CC2)cc1 (relative stereo) [compound 311] | 3 (Class 3: The value of percent of control at 10^−7 M was more than 60% or the value of IC50 was more than 200 nM.)
Cc1nc(N[C@H]2CC[C@@H](NC(=O)C(C)c3ccc(C(=O)c4cccs4)cc3)CC2)cc(N(C)C)n1 (relative stereo) [compound 312] | 3 (Class 3: The value of percent of control at 10^−7 M was more than 60% or the value of IC50 was more than 200 nM.)
Cc1nc(N[C@H]2CC[C@@H](NC(=O)CC(C)C(F)(F)F)CC2)cc(N(C)C)n1 (relative stereo) [compound 314] | 3 (Class 3: The value of percent of control at 10^−7 M was more than 60% or the value of IC50 was more than 200 nM.)
Cc1nc(N[C@H]2CC[C@@H](NC(=O)C(C(=O)OCc3ccccc3)c3ccccc3)CC2)cc(N(C)C)n1 (relative stereo) [compound 321] | 3 (Class 3: The value of percent of control at 10^−7 M was more than 60% or the value of IC50 was more than 200 nM.)
COC(=O)[C@H](Cc1ccccc1)NC(=O)N[C@H]1CC[C@@H](Nc2cc(N(C)C)nc(C)n2)CC1 (relative stereo) [compound 411] | 3 (Class 3: The value of percent of control at 10^−7 M was more than 60% or the value of IC50 was more than 200 nM.)
Cc1nc(N[C@H]2CC[C@@H](NC(=O)NC(C)c3cccc4ccccc34)CC2)cc(N(C)C)n1 (relative stereo) [compound 415, N-(cis-4-{[6-(dimethylamino)-2-methylpyrimidin-4-yl]amino}cyclohexyl)-N′-[1-(1-naphthyl)ethyl]urea] | 1 (Class 1: The value of percent of control at 10^−7 M was less than 40% or the value of IC50 was less than 50 nM.)
Cc1nc(N[C@H]2CC[C@@H](NC(=O)c3ccc4c(c3)C(=O)c3ccccc3C4=O)CC2)cc(N(C)C)n1 [compound 198] | 3 (Class 3: The value of percent of control at 10^−7 M was more than 60% or the value of IC50 was more than 200 nM.)
CC(=O)N[C@H]1CC[C@@H](Nc2cc(N(C)C)nc(C)n2)CC1 [compound 199] | 3 (Class 3: The value of percent of control at 10^−7 M was more than 60% or the value of IC50 was more than 200 nM.)
Cc1nc(N[C@H]2CC[C@@H](NC(=O)c3ccccc3)CC2)cc(N(C)C)n1 [compound 200, N-(cis-4-{[6-(dimethylamino)-2-methylpyrimidin-4-yl]amino}cyclohexyl)benzamide] | 2 (Class 2: The value of percent of control at 10^−7 M was from 40% to 60% or the value of IC50 was from 50 nM to 200 nM.)
Cc1nc(N[C@H]2CC[C@@H](NC(=O)c3ccc(-c4ccccc4)cc3)CC2)cc(N(C)C)n1 [compound 201] | 3 (Class 3: The value of percent of control at 10^−7 M was more than 60% or the value of IC50 was more than 200 nM.)
Cc1nc(N[C@H]2CC[C@@H](NC(=O)c3ccc(C(C)(C)C)cc3)CC2)cc(N(C)C)n1 [compound 202] | 3 (Class 3: The value of percent of control at 10^−7 M was more than 60% or the value of IC50 was more than 200 nM.)
Cc1nc(N[C@H]2CC[C@@H](NC(=O)c3cc4ccccc4s3)CC2)cc(N(C)C)n1 [compound 203] | 3 (Class 3: The value of percent of control at 10^−7 M was more than 60% or the value of IC50 was more than 200 nM.)
Cc1nc(N[C@H]2CC[C@@H](NC(=O)Cc3ccc(OCc4ccccc4)cc3)CC2)cc(N(C)C)n1 [compound 204] | 3 (Class 3: The value of percent of control at 10^−7 M was more than 60% or the value of IC50 was more than 200 nM.)
Cc1nc(N[C@H]2CC[C@@H](NC(=O)c3ccc(Br)cc3)CC2)cc(N(C)C)n1 [compound 205] | 3 (Class 3: The value of percent of control at 10^−7 M was more than 60% or the value of IC50 was more than 200 nM.)
Cc1nc(N[C@H]2CC[C@@H](NC(=O)COCc3ccccc3)CC2)cc(N(C)C)n1 [compound 206] | 3 (Class 3: The value of percent of control at 10^−7 M was more than 60% or the value of IC50 was more than 200 nM.)
Cc1nc(N[C@H]2CC[C@@H](NC(=O)c3ccc4nonc4c3)CC2)cc(N(C)C)n1 [compound 207, N-(cis-4-{[6-(dimethylamino)-2-methylpyrimidin-4-y]amino}cyclohexyl)-2,1,3-benzoxadiazole-5-carboxamide] | 3 (Class 3: The value of percent of control at 10^−7 M was more than 60% or the value of IC50 was more than 200 nM.)
Cc1nc(N[C@H]2CC[C@@H](NC(=O)c3ccc(Cl)cc3)CC2)cc(N(C)C)n1 [compound 208, 4-chloro-N-(cis-4-{[6-(dimethylamino)-2-methylpyrimidin-4-yl]amino}cyclohexyl)benzamide] | 2 (Class 2: The value of percent of control at 10^−7 M was from 40% to 60% or the value of IC50 was from 50 nM to 200 nM.)
Cc1nc(N[C@H]2CC[C@@H](NC(=O)COc3ccc(Cl)cc3)CC2)cc(N(C)C)n1 [compound 209] | 3 (Class 3: The value of percent of control at 10^−7 M was more than 60% or the value of IC50 was more than 200 nM.)
